Values after ≈ are worked out from the molar mass of the structure shown.
Experiments:
U-937 = assay: Anticancer activity against human U-937 cells assessed as cell growth inhibition; type: functional, cell-based
B16 [1] = assay: Anticancer activity against mouse B16 cells assessed as cell growth inhibition; type: functional, cell-based
B16 [2] = assay: Antitumor activity against mouse B16 cells implanted in mouse assessed as inhibition of lung tumor formation at 5 mg/kg, po measured after 10 days relative to control; type: functional; set-up: scale not given: the % may be the effect or the level left; settings: time 10 day
Enterococcus = assay: Antibacterial activity against vancomycin resistant Enterococcus incubated for 24 hrs by broth microdilution method; type: functional
Staphylococcus aureus = assay: Antibacterial activity against methicillin resistant Staphylococcus aureus incubated for 24 hrs by broth microdilution method; type: functional
Jurkat = assay: Anticancer activity against human Jurkat T cells assessed as cell growth inhibition; type: functional, cell-based
HT-29 = assay: Anticancer activity against human HT-29 cells assessed as cell growth inhibition; type: functional, cell-based
Histoplasma capsulatum = assay: Antifungal activity against Histoplasma capsulatum; type: functional
Blastomyces dermatitidis = assay: Antifungal activity against Blastomyces dermatitidis; type: functional
[3] = molecular target: Prostaglandin G/H synthase 1 (Homo sapiens, UniProt P23219); assay: Inhibition of COX-1 (unknown origin) using arachidonic acid as substrate assessed as PGH2 level preincubated for 5 mins followed by substrate addition and measured after 1 min by UHPLC-MS/MS analysis
Chain of Prostaglandin G/H synthase 1 (P23219 whole entry): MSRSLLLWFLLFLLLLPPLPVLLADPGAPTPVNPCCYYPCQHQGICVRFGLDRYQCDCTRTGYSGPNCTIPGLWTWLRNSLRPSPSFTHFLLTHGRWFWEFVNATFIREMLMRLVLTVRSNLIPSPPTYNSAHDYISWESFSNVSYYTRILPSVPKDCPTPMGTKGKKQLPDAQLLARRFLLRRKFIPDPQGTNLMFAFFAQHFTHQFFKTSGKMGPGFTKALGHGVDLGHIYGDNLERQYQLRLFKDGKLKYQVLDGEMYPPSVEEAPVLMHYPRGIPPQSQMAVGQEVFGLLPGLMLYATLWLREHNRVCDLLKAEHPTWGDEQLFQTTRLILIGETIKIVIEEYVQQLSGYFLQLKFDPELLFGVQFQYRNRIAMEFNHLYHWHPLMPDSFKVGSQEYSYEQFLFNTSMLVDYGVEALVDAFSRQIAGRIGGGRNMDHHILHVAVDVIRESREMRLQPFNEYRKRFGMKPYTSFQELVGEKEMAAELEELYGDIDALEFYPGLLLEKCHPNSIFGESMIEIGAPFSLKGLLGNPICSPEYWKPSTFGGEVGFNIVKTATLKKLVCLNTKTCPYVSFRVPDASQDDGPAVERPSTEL

[4] = Inhibition of Saccharomyces alpha-glucosidase using p-nitrophenyl-alpha-D-glucopyranoside as substrate assessed as substrate hydrolysis incubated for 15 mins by spectrophotometer analysis; set-up: species or system Saccharomyces sp.

## C[C@@H]1CC[C@@H](c2ccoc2)N2C[C@@]3(CC[C@@H]12)CS[C@@]1(CC[C@H]2[C@H](C)CC[C@@H](c4ccoc4)N2[C@@H]1O)C3
U-937
  IC50: 5000 nM
B16 [1]
  IC50: 29 nM
B16 [2]
  Activity: >90%

## COc1ccc([C@H]2CC[C@H](C)[C@H]3CC[C@](C)(SC)[C@H](O)N23)cc1
U-937
  IC50: 5000 nM

## CCn1cc(C(=O)O)c(=O)c2cc(F)c(N3CCNCC3)cc21 [NORFLOXACIN]
Enterococcus
  MIC: 4 µg/mL (≈ 12.5 µM)
Staphylococcus aureus
  MIC: 0.5 µg/mL (≈ 1.57 µM)

## C[C@H]1CC[C@H](c2ccccc2)N2[C@@H]1CC[C@@](C)(Sc1ccccc1)[C@@H]2O
U-937
  IC50: 2500 nM

## C1=[N+](CCCCc2ccccc2)CCCC12CCCS2 (centres undefined)
Jurkat
  EC50: 6300 nM
HT-29
  EC50: 12000 nM

## CC1CCC(c2ccccc2)N2C1CCC(C)(Sc1ccccc1)C2O (racemic)
U-937
  IC50: 5000 nM

## C[C@@H]1CC[C@@H](c2ccoc2)N2[C@H]1CC[C@]1(CS[C@]3(CC[C@H]4[C@H](C)CC[C@@H](c5ccoc5)N4[C@@H]3O)C1)[C@H]2O
U-937
  IC50: 1250 nM

## C1=[N+](Cc2ccccc2)CCCC12CSC1(C=[N+](Cc3ccccc3)CCC1)C2 (centres undefined)
Jurkat
  EC50: 1600 nM
HT-29
  EC50: 2300 nM

## COc1ccc(C[N+]2=CC3(CCC2)CSC2(C=[N+](Cc4ccc(OC)cc4)CCC2)C3)cc1 (centres undefined)
Jurkat
  EC50: 1800 nM
HT-29
  EC50: 2800 nM

## C[C@H]1CC[C@H](c2ccoc2)N2[C@@H]1CC[C@]1(CS[C@]3(CC[C@@H]4[C@@H](C)CC[C@H](c5ccoc5)N4[C@H]3O)C1)[C@@H]2O
U-937
  IC50: 5000 nM

## COc1ccc([C@H]2CC[C@H](C)[C@H]3CCC(SC)(SC)[C@H](O)N23)cc1
U-937
  IC50: 5000 nM

## COc1ccc([C@H]2CC[C@H](C)[C@H]3CC[C@@](C)(SC)[C@H](O)N23)cc1
U-937
  IC50: 1250 nM

## C#CCC1(SC)CCC2C(C)CCC(c3ccccc3)N2C1O (racemic)
U-937
  IC50: 5000 nM

## C[C@@H]1CC[C@@H](c2ccoc2)N2[C@H]1CC[C@]1(CS[C@@]3(CC[C@H]4[C@H](C)CC[C@@H](c5ccoc5)N4[C@@H]3O)C1)[C@H]2O
U-937
  IC50: 2500 nM

## FC(F)(F)c1ccc(C[N+]2=CC3(CCC2)CSC2(C=[N+](Cc4ccc(C(F)(F)F)cc4)CCC2)C3)cc1 (centres undefined)
Jurkat
  EC50: 1800 nM
HT-29
  EC50: 2400 nM

## CC1CCC(c2ccoc2)N2C1CCC1(CSC3(CCC4C(C)CCC(c5ccoc5)N4C3O)C1)C2O (centres undefined)
Jurkat
  EC50: 263 nM
HT-29
  EC50: 547 nM

## C#CC[C@]1(SC)CC[C@@H]2[C@@H](C)CC[C@H](c3ccccc3)N2[C@H]1O
U-937
  IC50: 2500 nM

## C[C@H]1CC[C@H](c2ccccc2)N2[C@@H]1CC[C@](C)(Sc1ccccc1)[C@@H]2O
U-937
  IC50: 5000 nM

## CS[C@@]1(C)CC[C@@H]2[C@@H](C)CC[C@H](c3ccccc3)N2[C@H]1O
U-937
  IC50: 5000 nM

## NCC[C@H](O)C(=O)N[C@@H]1C[C@H](N)[C@@H](O[C@H]2O[C@H](CN)CC[C@H]2N)[C@H](O)[C@H]1O[C@H]1O[C@H](CO)[C@@H](O)[C@H](N)[C@H]1O [ARBEKACIN]
Staphylococcus aureus
  MIC: 0.5 µg/mL (≈ 0.905 µM)

## C1=[N+](CCCCc2ccccc2)CCCC12CCCO2 (centres undefined)
Jurkat
  EC50: 38000 nM
HT-29
  EC50: 87000 nM

## CSC1(SC)CC[C@@H]2[C@@H](C)CC[C@H](c3ccc(F)cc3)N2[C@H]1O
U-937
  IC50: 5000 nM

## CSC1(SC)CC[C@H]2[C@H](C)CC[C@@H](c3ccccc3)N2[C@@H]1O
U-937
  IC50: 10000 nM

## CS[C@@]1(C)CC[C@@H]2[C@@H](C)CC[C@H](c3ccc(F)cc3)N2[C@H]1O
U-937
  IC50: 5000 nM

## CN[C@H](CC(C)C)C(=O)N[C@H]1C(=O)N[C@@H](CC(N)=O)C(=O)N[C@H]2C(=O)N[C@H]3C(=O)N[C@H](C(=O)N[C@H](C(=O)O)c4cc(O)cc(O)c4-c4cc3ccc4O)[C@H](O)c3ccc(c(Cl)c3)Oc3cc2cc(c3O[C@@H]2O[C@H](CO)[C@@H](O)[C@H](O)[C@H]2O[C@H]2C[C@](C)(N)[C@H](O)[C@H](C)O2)Oc2ccc(cc2Cl)[C@H]1O [VANCOMYCIN]
Enterococcus
  MIC: 0.5 µg/mL (≈ 0.345 µM)

## CSC1(C)CCC2C(C)CCC(c3ccccc3)N2C1O (racemic)
U-937
  IC50: 3000 nM

## CSC1(SC)CC[C@@H]2[C@@H](C)CC[C@H](c3ccccc3)N2[C@H]1O
U-937
  IC50: 1250 nM

## C[C@@H]1CC[C@@H](c2ccoc2)N2[C@H]1CC[C@@]1(CS[C@@]3(CC[C@H]4[C@H](C)CC[C@@H](c5ccoc5)N4[C@@H]3O)C1)[C@H]2O
Enterococcus
  MIC: 2 µg/mL (≈ 3.8 µM)
Staphylococcus aureus
  MIC: 1 µg/mL (≈ 1.9 µM)
Histoplasma capsulatum
  Activity: 100 µg/mL
Blastomyces dermatitidis
  Activity: 100 µg/mL
U-937
  IC50: 5000 nM
B16 [1]
  IC50: 87 nM

## C[C@H]1CC[C@H](c2ccoc2)N2[C@@H]1CC[C@@]1(CS[C@@]3(CC[C@@H]4[C@@H](C)CC[C@H](c5ccoc5)N4[C@H]3O)C1)[C@@H]2O
U-937
  IC50: 2500 nM

## CS[C@]1(C)CC[C@@H]2[C@@H](C)CC[C@H](c3ccc(F)cc3)N2[C@H]1O
U-937
  IC50: 1250 nM

## CS[C@]1(C)CC[C@@H]2[C@@H](C)CC[C@H](c3ccccc3)N2[C@H]1O
U-937
  IC50: 625 nM

## C[C@@H]1CC[C@@H](c2ccoc2)N2[C@H]1CC[C@@]1(CS[C@]3(CC[C@H]4[C@H](C)CC[C@@H](c5ccoc5)N4[C@@H]3O)C1)[C@H]2O
U-937
  IC50: 2500 nM

## CC(=O)NC[C@H]1CN(c2ccc(N3CCOCC3)c(F)c2)C(=O)O1 [LINEZOLID]
Staphylococcus aureus
  MIC: 1 µg/mL (≈ 2.96 µM)

## C[C@@H]1CC[C@@H](c2ccccc2)N2[C@@H](O)[C@@](C)(Sc3ccccc3)CC[C@@H]12
U-937
  IC50: 2500 nM

## C[C@@H]1CC[C@@H](c2ccoc2)N2C[C@@]3(CC[C@@H]12)CS[C@]1(CC[C@H]2[C@H](C)CC[C@@H](c4ccoc4)N2[C@@H]1O)C3 [6-HYDROXYTHIONUPHLUTINE B]
B16 [1]
  IC50: 360 nM

## C/C=C/[S+]([O-])SC1SC(O)C(C)C1C (centres undefined)
[3]
  IC50: 52 nM
[4]
  IC50: 710 nM

## C[C@H]1CC[C@H](c2ccoc2)N2[C@@H]1CC[C@@]1(CS[C@]3(CC[C@@H]4[C@@H](C)CC[C@H](c5ccoc5)N4[C@H]3O)C1)[C@@H]2O
U-937
  IC50: 2500 nM

## C1=[N+](CCCCc2ccccc2)CCCC12CSC1(C=[N+](CCCCc3ccccc3)CCC1)C2 (centres undefined)
Jurkat
  EC50: 1200 nM
HT-29
  EC50: 2100 nM

## Cc1onc(-c2ccccc2)c1C(=O)N[C@@H]1C(=O)N2[C@@H]1SC(C)(C)[C@@H]2C(=O)O [OXACILLIN]
Staphylococcus aureus
  MIC: 0.06 µg/mL (≈ 0.149 µM)

## CSC1(SC)CCC2C(C)CCC(c3ccccc3)N2C1O (racemic)
U-937
  IC50: 5000 nM

## C=CC[C@]1(SC)CC[C@@H]2[C@@H](C)CC[C@H](c3ccc(F)cc3)N2[C@H]1O
U-937
  IC50: 5000 nM

## C1=[N+](CCCCc2ccccc2)CCCC12CCC2
Jurkat
  EC50: 9600 nM
HT-29
  EC50: 43000 nM

## C=C1C=[N+](CCCCc2ccccc2)CCC1
Jurkat
  EC50: 17000 nM
HT-29
  EC50: 45000 nM

## C[C@H]1CC[C@H](c2ccoc2)N2C[C@]3(CC[C@H]12)CS[C@]1(CC[C@@H]2[C@@H](C)CC[C@H](c4ccoc4)N2[C@H]1O)C3
U-937
  IC50: 5000 nM

## C[C@H]1CC[C@H](c2ccoc2)N2[C@@H]1CC[C@]1(CS[C@@]3(CC[C@@H]4[C@@H](C)CC[C@H](c5ccoc5)N4[C@H]3O)C1)[C@@H]2O
U-937
  IC50: 5000 nM

## C#CC[C@@]1(SC)CC[C@@H]2[C@@H](C)CC[C@H](c3ccccc3)N2[C@H]1O
U-937
  IC50: 2500 nM
